Measurements: patent US20220128542A1, “TREATMENT EFFICIENCY EVALUATION” (TX MEDIC AB, priority 2019, published 2022)

System: brain of rats subjected to closed-head diffuse severe TBI (sTBI)
Experiment: HPLC of energy metabolites, antioxidants and oxidative/nitrosative stress biomarkers in brain, dose study after sTBI (Example 3)
Type: in vivo, rat
Excerpt: Male Wistar rats (n=160) of 300-350 g body weight were used in this study.
1994, 80: 291-300. This model causes diffuse axonal injury and it is able to reproduce the physical and mechanical characteristics of the diffuse TBI in humans.
Rats were placed prone on a bed of specific polyurethane foam inserted in a special container. This foam dissipates the major part of the potential energy (deriving from the mechanical forces) and prevents any rebound of the animal after the impact that could produce spinal damages.
These time points are coincident with the worst biochemical derangement (2 days) or, in the case of a mildly injured brain, with a full metabolic recovery (7 days).
The drug treatment consisted in a subcutaneous injection of 0.5 ml of LMW-DS (Tikomed) and administered at 3 different concentrations (1, 5 and 15 mg/kg body weight), according to the schematic protocol described below.
Sham-operated animals underwent the same procedure of anesthesia but TBI and were used as the control group.
Rats used in this study were divided into 4 groups in order to carry out a study on the efficacy of three different concentrations of LMW-DS at two different times post TBI. As subsequently specified, in each group there were animals subjected to a specific treatment for metabolic analyses and other animals intended to histo-morphological studies, according to the procedures described below.
Rats subjected to sTBI and receiving a single administration of LMW-DS after 30 minutes post-TBI, with sacrifice at 2 days post-TBI. Animals were divided in the following subgroups:
Rats subjected to sTBI and receiving a single administration of LMW-DS after 30 minutes post-TBI, with sacrifice at 7 days post-TBI. Animals were divided in the following subgroups:
Rats (n=12) subjected to sTBI and receiving repeated administrations of the maximal dose of LMW-DS (15 mg/kg b.w.) after 30 minutes, 3 days and 5 days post-TBI, with sacrifice at 7 days post-TBI. Four additional rats were used for the histo-morphological studies. Total rats in this group: n=16
To minimize metabolite loss, an in vivo craniectomy was performed in all animals during anesthesia. The rat skull was carefully removed, the brain was exposed, sharply cut along the sagittal fissure and the two hemispheres were separated. The hemispheres dedicated to biochemical analyses were freeze-clamped by aluminum tongues pre-cooled in liquid nitrogen and then immersed in liquid nitrogen. The freeze-clamping procedure was introduced to accelerate freezing of the tissue, thus minimizing potential metabolite loss.
Tissue homogenization for metabolite analyses was effected as described below. After the wet weight (w.w.) determination, the frozen hemispheres were placed into 7 ml of ice-cold, nitrogen-saturated, precipitating solution (1:10 w/v) composed by CH3CN+10 mM KH2PO4, pH 7.40, (3:1; v:v), and the homogenization was performed using an Ultra-Turrax homogenizer set at 24,000 rpm/min (Janke & Kunkel, Staufen, Germany). After centrifugation at 20,690×g, for 10 min at 4° C., the clear supernatants were saved, pellets were supplemented with an aliquot of 10 mM KH2PO4 and homogenized again as described above and saved overnight at −20° C. in order to obtain a complete recovery of aqueous phase from tissue. A second centrifugation was performed (20,690×g, for 10 min at 4° C.) and supernatants combined with those previously obtained were extracted by vigorous agitation with a double volume of HPLC-grade CHCl3 and centrifuged as above.

[1] = rats 2 days post-TBI, single 15 mg/kg b.w. 30 min after trauma
[2] = rats 7 days post-sTBI, repeated 15 mg/kg b.w.
[3] = rats 7 days post-sTBI, single 1 mg/kg b.w.
[4] = rats 7 days post-sTBI, single 5 mg/kg b.w.
[5] = rats 7 days post-sTBI, single 15 mg/kg b.w.

sodium salt of dextran sulfate [LMW-DS]
GUANOSINE concentration in brain homogenate [1]: 24.35 ± 4.05 nmol/g w.w. | HYPDXANTHINE concentration in brain homogenate [1]: 6.82 ± 1.12 nmol/g w.w. | INOSINE concentration in brain homogenate [1]: 142.91 ± 18.63 nmol/g w.w. | URACIL concentration in brain homogenate [1]: 15.55 ± 3.04 nmol/g w.w. | β-PSEUDOURIDINE concentration in brain homogenate [1]: 7.84 ± 1.57 nmol/g w.w. | ADENOSINE concentration in brain homogenate [2]: 40.84 ± 30.25 nmol/g w.w. | ADP-Ribose concentration in brain homogenate [2]: 13.23 ± 3.32 nmol/g w.w. | AMP concentration in brain homogenate [2]: 43.12 ± 3.39 nmol/g w.w. | Acetyl-CoA concentration in brain homogenate [2]: 37.91 ± 6.46 nmol/g w.w. | CMP concentration in brain homogenate [2]: 31.21 ± 13.28 nmol/g w.w. | CoA-SH concentration in brain homogenate [2]: 45.76 ± 5.87 nmol/g w.w. | GDP concentration in brain homogenate [2]: 109.06 ± 12.46 nmol/g w.w. | GUANINE concentration in brain homogenate [2]: 3.32 ± 1.41 nmol/g w.w. | GUANOSINE concentration in brain homogenate [2]: 19.66 ± 4.10 nmol/g w.w. | INOSINE concentration in brain homogenate [2]: 139.26 ± 15.62 nmol/g w.w. | Malonyl-CoA concentration in brain homogenate [2]: 12.56 ± 2.27 nmol/g w.w. | NADPH concentration in brain homogenate [2]: 11.21 ± 2.60 nmol/g w.w. | NO2 concentration in brain homogenate [2]: 130.69 ± 28.31 nmol/g w.w. | UDP-GIcNac concentration in brain homogenate [2]: 86.42 ± 29.89 nmol/g w.w. | UDP-Gal concentration in brain homogenate [2]: 135.15 ± 9.29 nmol/g w.w. | UDP-GalNac concentration in brain homogenate [2]: 16.50 ± 4.73 nmol/g w.w. | URACIL concentration in brain homogenate [2]: 24.13 ± 4.96 nmol/g w.w. | URIDINE concentration in brain homogenate [2]: 97.21 ± 23.03 nmol/g w.w. | XANTHINE concentration in brain homogenate [2]: 11.24 ± 3.18 nmol/g w.w. | ADP concentration in brain homogenate [3]: 286.78 ±38.19 nmol/g w.w. | AMP concentration in brain homogenate [3]: 43.13 ± 3.39 nmol/g w.w. | ASCORBIC ACID concentration in brain homogenate [3]: 2177.22 ± 262.21 nmol/g w.w. | CDP choline concentration in brain homogenate [3]: 6.26 ± 2.01 nmol/g w.w. | CMP concentration in brain homogenate [3]: 25.41 ± 10.81 nmol/g w.w. | CYTIDINE concentration in brain homogenate [3]: 29.67 ± 10.44 nmol/g w.w. | CYTOSINE concentration in brain homogenate [3]: 16.03 ± 3.44 nmol/g w.w. | GDP concentration in brain homogenate [3]: 121.72 ± 13.91 nmol/g w.w. | GMP concentration in brain homogenate [3]: 113.06 ± 53.51 nmol/g w.w. | GSH concentration in brain homogenate [3]: 1627.30 ± 214.51 nmol/g w.w. | GUANINE concentration in brain homogenate [3]: 6.86 ± 2.92 nmol/g w.w. | GUANOSINE concentration in brain homogenate [3]: 19.11 ± 3.98 nmol/g w.w. | NADH concentration in brain homogenate [3]: 8.20 ± 1.41 nmol/g w.w. | NAD^+ concentration in brain homogenate [3]: 268.14 ± 37.97 nmol/g w.w. | NO3 concentration in brain homogenate [3]: 153.62 ± 26.24 nmol/g w.w. | UDP-GIcNac concentration in brain homogenate [3]: 85.36 ± 29.53 nmol/g w.w. | UDP-Gal concentration in brain homogenate [3]: 130.20 ± 8.95 nmol/g w.w. | UDP-GalNac concentration in brain homogenate [3]: 15.85 ± 4.54 nmol/g w.w. | XANTHINE concentration in brain homogenate [3]: 12.53 ± 3.54 nmol/g w.w. | ADP concentration in brain homogenate [4]: 289.27 ± 38.52 nmol/g w.w. | AMP concentration in brain homogenate [4]: 59.50 ± 4.68 nmol/g w.w. | ASCORBIC ACID concentration in brain homogenate [4]: 2195.87 ± 264.45 nmol/g w.w. | CDP choline concentration in brain homogenate [4]: 10.37 ± 3.33 nmol/g w.w. | CYTIDINE concentration in brain homogenate [4]: 26.51 ± 9.33 nmol/g w.w. | CYTOSINE concentration in brain homogenate [4]: 12.67 ± 2.72 nmol/g w.w. | GMP concentration in brain homogenate [4]: 101.42 ± 48.00 nmol/g w.w. | GUANINE concentration in brain homogenate [4]: 7.92 ± 3.37 nmol/g w.w. | GUANOSINE concentration in brain homogenate [4]: 33.42 ± 6.96 nmol/g w.w. | NADH concentration in brain homogenate [4]: 8.83 ± 1.26 nmol/g w.w. | NADPH concentration in brain homogenate [4]: 12.30 ± 2.86 nmol/g w.w. | NADP^+ concentration in brain homogenate [4]: 24.45 ± 8.97 nmol/g w.w. | UDP concentration in brain homogenate [4]: 44.19 ± 6.22 nmol/g w.w. | UDP-GIcNac concentration in brain homogenate [4]: 85.14 ± 29.45 nmol/g w.w. | UDP-Gal concentration in brain homogenate [4]: 132.66 ± 9.12 nmol/g w.w. | UDP-Glc concentration in brain homogenate [4]: 58.10 ± 11.81 nmol/g w.w. | XANTHINE concentration in brain homogenate [4]: 14.33 ± 4.05 nmol/g w.w. | ADENOSINE concentration in brain homogenate [5]: 55.95 ± 41.44 nmol/g w.w. | ADP concentration in brain homogenate [5]: 276.83 ± 36.87 nmol/g w.w. | ADP-Ribose concentration in brain homogenate [5]: 19.21 ± 4.82 nmol/g w.w. | Acetyl-CoA concentration in brain homogenate [5]: 38.60 ± 6.57 nmol/g w.w. | CDP choline concentration in brain homogenate [5]: 10.06 ± 3.23 nmol/g w.w. | CYTIDINE concentration in brain homogenate [5]: 33.06 ± 11.63 nmol/g w.w. | CYTOSINE concentration in brain homogenate [5]: 13.87 ± 2.98 nmol/g w.w. | GDP concentration in brain homogenate [5]: 122.07 ± 13.95 nmol/g w.w. | GUANINE concentration in brain homogenate [5]: 5.27 ± 2.24 nmol/g w.w. | GUANOSINE concentration in brain homogenate [5]: 20.91 ± 4.36 nmol/g w.w. | NADP^+ concentration in brain homogenate [5]: 23.75 ± 8.72 nmol/g w.w. | NAD^+ concentration in brain homogenate [5]: 491.52 ± 69.61 nmol/g w.w. | NO3 concentration in brain homogenate [5]: 161.99 ± 27.67 nmol/g w.w. | UDP-Gal concentration in brain homogenate [5]: 137.57 ± 9.46 nmol/g w.w. | XANTHINE concentration in brain homogenate [5]: 12.71 ± 3.60 nmol/g w.w.
